Measured values taken from EP0255028A2 (priority 1986, dated 1988).
Like-named read-outs stand apart in the source and are kept apart here.

Assays:
[1] = tested on: durch PAF induzierte Aggregation von Humanthrambozyten; assay: Inhibition of PAF-induced platelet aggregation in vitro (Born and Cross method); type: cell-based; details: Homo sapiens
From the text: 1. In vitro Untersuchun^qen: Hemmung der Blutplättchen-Aqqreqation
Zur Bestimmung der PAF-antagonistischen Wirkung von Substanzen wurde die durch PAF induzierte Aggregation von Humanthrambozyten in vitro verwendet. Zur Gewinnung von thrombozytenreichem Plasma (TRP) erfolgt die Blutentnahme aus einer nicht gestauten Vene mit Hilfe einer Plastikspritze, in der sich 3,8 %ige Natriumcitratlösung befindet. Das Verhältnis zwischen Natriumcitratlösung und Blut beträgt 1:9. Nach vorsichtiger Durchmischung wird das Citratblut bei 150 x g (1200 U/min) 20 Minuten lang zentrifugiert. Die Messung der Thrombozytenaggregation erfolgt nach dem von Born und Cross ausgearbeiteten Verfahren (G. V. R. Born und M.J. Cross, J. Physiol. 168, 178 (1963)), wobei dem TRP unter ständigem Rühren PAF als Auslöser der Aggregation zugesetzt wird.
Die Prüfsubstanz wird jeweils 2 - 3 Minuten vor Auslösung der Aggregation in einem Volumen von 10 µl zugesetzt. Als Lösungsmittel dienen entweder Aqua.dest., Ethanol und/oder Dimethylsulgoxyd. Kontrollansätze erhalten entsprechende Volumina dieser Lösungsmittel. Nach Registrierung der Ausgangsabsorption (2-3 Minuten) wird die Aggregation mit PAF (5 x 10^-8M) induziert.
Zur Beurteilung von Substanzeffekten wird das Maximum der ersten Aggregationswelle verwendet. Die durch PAF induzierte maximale Absorptionsrate maximale Aggregation x 100 %) wird jeweils gleichzeitig in einem Parallelansatz (= Kontrollansatz in einem der Kanäle des 2 Kanal-Aggregometers) zu jedem Testansatz (zweiter Kanal) mitgeprüft und als 100 %-Wert verwendet.
Der unter dem Einfluß der Testsubstanz erreichte Aggregationswert wird als 100 % angegeben.
Jede Prüfsubstanz wird bei Konzentrationen von 10^-3 bis 10^-8M mit einem Stichprobenumfang von jeweils n= 4 hinsichtlich einer hemmenden Wirkung auf die durch PAF induzierte Thrombozytenaggregation untersucht. Danach wird eine Konzentrations-Wirkungskurve anhand von 3 Konzentrationen erstellt und die IK50 (Konzentration bei einer 50%igen Aggregationsheinmung) ermittelt. Die IK-Werte von Verbindungen der allgemeinen Formel I bewegen sich im allgemeinen um Werte, die kleiner als 9 µM sind.

[2] = molecular target: Flunitrazopam-Bindungstest; assay: Flunitrazepam binding test (FNB); details: read-out: IK50-Wert FNB
[3] = read-out: IK50 (Konzentration bei einer 50%igen Aggregationshemmung)

Compound	IC50 ([1]; read-out: IK50-Wert PAF) [nM]	IC50 [2] [nM]	IC50 [1, 3] [nM]
Cc1cnc2n1-c1ccc(OCc3cccnc3)cc1C(c1ccccc1)=NC2 (atropisomer, axis not shown) [(m)]	100		
CCOC(=O)CCCOc1ccc2c(c1)C(c1ccccc1Cl)=NCc1nnc(C)n1-2 [(a), 8-(3-Ethoxycarbonyl-propyloxy)-1-Methyl-6-(2-chlorphenyl)-4H-(1,2,4]triazolo(4,3-a][1,4]benzodiazepin]	1300	570	
Cc1nnc2n1-c1ccc(OCC(=O)NCC(C)C)cc1C(c1ccccc1Cl)=NC2 [(b)]	400	40	
Cc1nnc2n1-c1ccc(OCC(=O)NC3CCN(C)CC3)cc1C(c1ccccc1Cl)=NC2 [(c)]	800	2160	
Cc1nnc2n1-c1ccc(OCCN3CCOCC3)cc1C(c1ccccc1Cl)=NC2 [(d)]	300	2680	
Cc1nnc2n1-c1ccc(OCCN3C(=O)c4ccccc4C3=O)cc1C(c1ccccc1Cl)=NC2 [(e)]	300		
Cc1nnc2n1-c1ccc(C3=NC(C)(C)CO3)cc1C(c1ccccc1Cl)=NC2 [(f)]	400	800	
Cc1nnc2n1-c1ccc(C(=O)NCCN3CCOCC3)cc1C(c1ccccc1Cl)=NC2 [(g)]	900	> 5000	
Cc1nnc2n1-c1ccc(C(=O)OCCCN(C)C)cc1C(c1ccccc1Cl)=NC2 [(h)]	1200		
Cc1nnc2n1-c1ccc(OCCN3CCOCC3)cc1C(c1ccccc1Cl)NC2 (centres unmarked) [(i)]	400	4550	
Cc1nnc2n1-c1ccc(OCCCN3CCOCC3)cc1C(c1ccccc1)=NC2 [(j)]	100	> 5000	
Cc1nnc2n1-c1ccc(OCc3cccnc3)cc1C(c1ccccc1)=NC2 [(k)]	200	1420	
Cc1cnc2n1-c1ccc(OCCCN3CCOCC3)cc1C(c1ccccc1)=NC2 [(l)]	100	> 5000	
Cc1nnc2n1-c1ccc(Cl)cc1C(c1ccccc1)=NC2 [Alprazolam, reference compound]	14000	5.5	14000
Cc1nnc2n1-c1ccc(Cl)cc1C(c1ccccc1Cl)=NC2 [Triazolam, reference compound]	9000	1.4	9000
